Laboratory results as given in patent publication US20250332173A1, “COMPOUNDS AND METHODS FOR MODULATING NUCLEIC ACID SPLICING” (REMIX THERAPEUTICS INC., priority 2021, published 2025).
Counter-ions that a name gives are not always drawn. Like-named read-outs stand apart in the source and are kept apart here.

What was measured:
Format in all cases: cell-based, human
[1] = system: SMN2 mRNA; assay: RT-qPCR splicing assay, SMN2 canonical junction (CJ) mRNA; conditions: Homo sapiens; Table 5 panel; canonical junction qPCR; compound concentration having 50% response in CJ decrease; read-out: SMN2 IC50 (decrease in CJ mRNA levels)
How it was run: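 Canonical-junction transcript levels in compound-treated A673 or K562 cells (24 h, up to 10 uM final) were determined from lysates by RT-qPCR with housekeeping-gene normalization.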

[2] = system: HTT mRNA; assay: RT-qPCR splicing assay, HTT canonical junction (CJ) and alternative junction (AJ) mRNA; conditions: Homo sapiens; for AC50: increase in HTT alternative junction (AJ) mRNA, read-out: HTT AJ AC50
How it was run: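 A673 or K562 cells were treated for 24 h at 37 °C with an 11-point 3-fold compound dilution series (top final concentration 10 uM, DMSO ≤0.25%). After lysis, one-step TaqMan RT-qPCR quantified junction transcripts, normalized to PPIA for A673 or to GAPDH/GUSB for K562.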

[3] = system: Target C; assay: HiBiT protein abundance assay, Target C (Promega Nano-Glo HiBiT Lytic Detection System, knock-in K562 cell line); conditions: Homo sapiens, K562, 24 h, HiBiT K562 cell line, 24 hours, top dose 10 μM; read-out: Effect on protein abundance, Target C (IC50 category)
How it was run: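 HiBiT knock-in K562 cells (10,000/well) were treated for 24 h at 37 °C with a 10-point 3-fold dilution series, top final concentration 10 μM, DMSO ≤0.25%. Lytic HiBiT luminescence was read, normalized to unmodified K562 and DMSO-treated controls, and IC50 was interpolated from a four-parameter logistic fit.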

[4] = decrease in HTT canonical junction (CJ) mRNA, RT-qPCR, read-out: HTT CJ IC50
[5] = Table 5 panel, canonical junction qPCR, compound concentration having 50% response in CJ decrease, read-out: HTT IC50 (decrease in CJ mRNA levels)

Row | SMILES | IC50 [1] | IC50 [2, 4] | AC50 ([2]; RT-qPCR) | IC50 [2, 5] | IC50 [3]
1 | Cc1cn2nc(-c3cc(F)c4c(=O)n([C@H]5CCN(C)C6(CC6)C5)ncc4c3)cc(C)c2n1 [Compound 638] | < 100 nM | < 100 nM | < 100 nM | < 100 nM | < 100 nM
2 | CN(c1ccc2c(=O)n(-c3ccc4nn(C)cc4c3)cnc2c1)C1CCNCC1 [Compound 180] | > 10000 nM | > 10000 nM | > 10000 nM | > 10000 nM | > 10000 nM
3 | Cc1cn2cc(-c3cc(F)c4c(=O)n([C@H]5CNC[C@H]5C)ccc4c3)cc(F)c2n1 [Compound 652, 8-fluoro-6-(8-fluoro-2-methyl-imidazo[1,2-a]pyridin-6-yl)-2-[(3R,4R)-4-methylpyrrolidin-3-yl]isoquinolin-1-one] | 100 to 1000 nM | > 10000 nM | > 10000 nM | > 10000 nM | > 10000 nM
4 | Cc1cn2nc(-c3cc4ncn(C5CCNCC5)c(=O)c4cc3F)cc(C)c2n1 [Compound 585, 7-{2,8-dimethylimidazo[1,2-b]pyridazin-6-yl}-6-fluoro-3-(piperidin-4-yl)quinazolin-4-one] | 100 to 1000 nM | 1000 to 10000 nM | 1000 to 10000 nM | 1000 to 10000 nM | 1000 to 10000 nM
5 | Cc1cn2nc(-c3ccn4c(=O)c(C5CCNCC5)ccc4c3)cc(C)c2n1 [Compound 1181] | < 100 nM | < 100 nM | < 100 nM | < 100 nM | 
6 | Cc1cc(-c2cc(O)c3c(=O)n(C4CCNC5(CC5)C4)ncc3c2)cc2cn(C)nc12 (stereo not drawn) [Compound 561] | 100 to 1000 nM | 100 to 1000 nM | 100 to 1000 nM | 100 to 1000 nM | 100 to 1000 nM
7 | Cc1cn2nc(-c3cc(O)c4c(=O)n(C5CCNCC5)ncc4c3)cc(C)c2n1 [Compound 541] | < 100 nM | < 100 nM | < 100 nM | < 100 nM | < 100 nM
8 | Cc1cn2nc(-c3cc(N)c4c(=O)n([C@@H]5CCNC5)ccc4c3)cc(C)c2n1 [Compound 646, 8-amino-6-(2,8-dimethylimidazo[1,2-b]pyridazin-6-yl)-2-[(3R)-pyrrolidin-3-yl]isoquinolin-1-one] | 100 to 1000 nM | > 10000 nM | > 10000 nM | > 10000 nM | > 10000 nM
9 | Cc1cn2nc(-c3ccc4c(=O)n(C5CCNCC5)ccc4c3)cc(CC#N)c2n1 [Compound 520, 2-[2-methyl-6-[1-oxo-2-(4-piperidyl)-6-isoquinolyl]imidazo[1,2-b]pyridazin-8-yl]acetonitrile] | < 100 nM | 100 to 1000 nM | 100 to 1000 nM | 100 to 1000 nM | 1000 to 10000 nM
10 | Cc1cn2nc(-c3cc(N)c4c(=O)n([C@H]5CCNC5)ccc4c3)cc(C)c2n1 [Compound 645, 8-amino-6-(2,8-dimethylimidazo[1,2-b]pyridazin-6-yl)-2-[(3S)-pyrrolidin-3-yl]isoquinolin-1-one] | 100 to 1000 nM | > 10000 nM | 1000 to 10000 nM | 1000 to 10000 nM | > 10000 nM
11 | C=Cc1cn(C2CCNCC2)c(=O)c2c(F)cc(-c3cc(F)c4nc(C)cn4c3)cc12 [Compound 559, 4-ethenyl-8-fluoro-6-{8-fluoro-2-methylimidazo[1,2-a]pyridin-6-yl}-2-(piperidin-4-yl)isoquinolin-1-one] | < 100 nM | 100 to 1000 nM | < 100 nM | < 100 nM | 100 to 1000 nM
12 | COc1cc(-c2ccc3c(=O)n(C4CCNCC4)ccc3c2)nn2cc(C)nc12 [Compound 514, 6-(8-methoxy-2-methyl-imidazo[1,2-b]pyridazin-6-yl)-2-(4-piperidyl) isoquinolin-1-one; hydrochloride] | < 100 nM | < 100 nM | < 100 nM | < 100 nM | < 100 nM
13 | Cc1cn2nc(-c3ccc4c(=O)n(C5CCNCC5)ccc4c3)cc(CC(=O)O)c2n1 [Compound 531, 2-[2-methyl-6-[1-oxo-2-(4-piperidyl)-6-isoquinolyl]imidazo[1,2-b]pyridazin-8-yl]acetic acid] | < 100 nM | 100 to 1000 nM | < 100 nM | < 100 nM | 100 to 1000 nM
14 | CN1CCC(c2ccc3c(=O)n(-c4ccc5nn(C)cc5c4)cnc3c2)CC1 [Compound 177] | > 10000 nM | > 10000 nM | > 10000 nM | > 10000 nM | > 10000 nM
15 | Cc1cc(-c2ccc3c(=O)n(N4CCN(C)CC4)cnc3c2)cc2cn(C)nc12 [Compound 175] | 1000 to 10000 nM | 1000 to 10000 nM | > 10000 nM | 1000 to 10000 nM | > 10000 nM
16 | Cc1cn2nc(-c3ccc4c(=O)n(C5CCNCC5)ccc4c3)cc(OCc3ccccc3)c2n1 [Compound 526, 6-(8-benzyloxy-2-methyl-imidazo[1,2-b]pyridazin-6-yl)-2-(4-piperidyl) isoquinolin-1-one] | < 100 nM | 100 to 1000 nM | 100 to 1000 nM | 100 to 1000 nM | 100 to 1000 nM
17 | Cc1cc(-c2ccc3c(=O)n(C4CCNC5(CC5)C4)ncc3c2)cc2cn(C)nc12 (stereo not drawn) [Compound 512] | 100 to 1000 nM | 1000 to 10000 nM | 100 to 1000 nM | 100 to 1000 nM | < 100 nM
18 | Cc1cc(-c2ccc3c(=O)n(C4CC(C)(C)NC(C)(C)C4)cnc3n2)cc2cn(C)nc12 [Compound 179] | 1000 to 10000 nM | > 10000 nM | > 10000 nM | > 10000 nM | > 10000 nM
19 | Cc1cn2nc(-c3ccc4c(=O)n(C5CCNCC5)ccc4c3)cc(Oc3cccnc3)c2n1 [Compound 550, 6-[2-methyl-8-(3-pyridyloxy)imidazo[1,2-b]pyridazin-6-yl]-2-(4-piperidyl)isoquinolin-1-one] | < 100 nM | < 100 nM | < 100 nM | < 100 nM | < 100 nM
20 | Cc1cn2nc(-c3ccc4c(=O)n(C5CCN(CCF)CC5)ncc4c3)cc(C)c2n1 [Compound 515] | < 100 nM | 100 to 1000 nM | 100 to 1000 nM | 100 to 1000 nM | 1000 to 10000 nM
21 | COC(=O)c1cc(-c2ccc3c(=O)n(C4CCNCC4)ccc3c2)nn2cc(C)nc12 [Compound 517, methyl 2-methyl-6-[1-oxo-2-(4-piperidyl)-6-isoquinolyl]imidazo[1,2-b]pyridazine-8-carboxylate] | < 100 nM | 1000 to 10000 nM | 1000 to 10000 nM | 1000 to 10000 nM | 1000 to 10000 nM
22 | Cc1cn2nc(-c3ccc4c(=O)n(C5CCN(C)CC5)cnc4c3)cc(C)c2n1 [Compound 176] | 100 to 1000 nM | 1000 to 10000 nM | 1000 to 10000 nM | 1000 to 10000 nM | 1000 to 10000 nM
23 | CNc1cc(-c2cc(C)c3nc(C)cn3n2)cc2ccn([C@H]3CCNC3)c(=O)c12 [Compound 647, 6-(2,8-dimethylimidazo[1,2-b]pyridazin-6-yl)-8-(methylamino)-2-[(3S)-pyrrolidin-3-yl]isoquinolin-1-one] | 100 to 1000 nM | > 10000 nM | 1000 to 10000 nM | 1000 to 10000 nM | > 10000 nM
24 | Cc1cn2nc(-c3cc4ccn([C@H]5CCNC5)c(=O)c4cc3O)cc(C)c2n1 [Compound 641, 6-(2,8-dimethylimidazo[1,2-b]pyridazin-6-yl)-7-hydroxy-2-[(3S)-pyrrolidin-3-yl]isoquinolin-1-one] | < 100 nM | 1000 to 10000 nM | 100 to 1000 nM | 100 to 1000 nM | 100 to 1000 nM
25 | Cc1cn2nc(-c3cc(F)c4c(=O)n(C5CCNCC5)ncc4c3)cc(Oc3ccccc3)c2n1 [Compound 548, 8-fluoro-6-(2-methyl-8-phenoxy-imidazo[1,2-b]pyridazin-6-yl)-2-(4-piperidyl)phthala-zin-1-one] | < 100 nM | < 100 nM | < 100 nM | < 100 nM | < 100 nM
26 | Cn1ccc2c(cnn2-c2ccc3c(=O)n(C4CCNCC4)ccc3c2)c1=O [Compound 521] | 1000 to 10000 nM | 1000 to 10000 nM | 1000 to 10000 nM | 1000 to 10000 nM | 1000 to 10000 nM
27 | Cc1cn2nc(-c3cc(F)c4c(=O)n(C5CCNC5)cnc4c3)cc(C)c2n1 (stereo not drawn) [Compound 589, 7-{2,8-dimethylimidazo[1,2-b]pyridazin-6-yl}-5-fluoro-3-(pyrrolidin-3-yl)quinazolin-4-one] | 100 to 1000 nM | > 10000 nM | > 10000 nM | > 10000 nM | > 10000 nM
28 | Cc1cn2nc(-c3cc(F)c4c(=O)n(C5CCN(C)CC5)ncc4c3)cc(C)c2n1 [Compound 539] | < 100 nM | < 100 nM | < 100 nM | < 100 nM | < 100 nM
29 | Cc1cn2nc(-c3ccn4c(=O)c(C5=CCNCC5)ncc4c3)cc(C)c2n1 [Compound 1182] | 100 to 1000 nM | 100 to 1000 nM | 100 to 1000 nM | 100 to 1000 nM | 
30 | CNC1CCN(c2ccc3cc(-c4cc(C)c5nc(C)cn5n4)ccn3c2=O)C1 (stereo not drawn) [Compound 1158] | < 100 nM | 1000 to 10000 nM | 100 to 1000 nM | 100 to 1000 nM | 
